Experimental data from PubChem BioAssay AID1963868 (Molecular Pharmacology Branch, DTP, NCI, 2024).
Where “and” joins values, the source holds several entries; their conditions need not be identical. Identical values can stand only once.

System: KRAS PDC tumor spheroids (HUVEC+MSC), viability
Assay: Anticancer human tumor 254851-301-R-J1-PDC patient-derived colon carcinoma cell line growth inhibition [KRAS2]
Conditions: for viability, T/C: stronger effect = lower value
From the text: Multicellular complex tumor spheroid response to RAS pathway inhibitors in combination with a targeted agents in patient-derived cell lines with oncogenic KRAS variants from multiple cancer types
A high-throughput screen of multi-cell type tumor spheroids was designed to identify active combinations of targeted small molecules and KRAS pathway inhibitors. Complex spheroids include a stromal component modeled by human endothelial cells (HUVEC) and fibroblasts modeled by human mesenchymal stem cells (MSCs). The concentration ranges selected for each drug and investigational agent were based upon clinically achievable concentrations if the clinical Cmax of the agent was known.
Compounds. The drugs and investigational agents: BI-3406 (NSC825286), BAY-293 (NSC824723), batoprotafib (TNO155; NSC825523), sotorasib (AMG 510; NSC818433), MRTX1257 (NSC819558), elimusertib (BAY 1895344; NSC800525), molibresib (GSK525762; NSC774829), temuterkib (LY3214996; NSC803410), venetoclax (NSC766270), alisertib (NSC759677), olaparib (NSC753686), talazoparib (NSC767125), erdafitinib (NSC781556), ipatasertib (NSC767898), cabozantinib (NSC761068), nintedanib (NSC756659), abemaciclib (NSC768073), docetaxel (NSC628503), trametinib (NSC758246), and sapanisertib (NSC764658) were obtained from the National Cancer Institute (NCI) Developmental Therapeutics Program Chemical Repository. The FDA-approved anticancer drug set is available from the Developmental Therapeutics Program. […] The stock solutions were prepared in dimethyl sulfoxide (DMSO, Sigma-Aldrich, St. Louis, MO, cat. D2650) at 800-fold the tested concentration and stored at -70 degrees C prior to their use. All drugs and investigational agents were tested over a range starting from a high concentration at or near the clinical Cmax and decreasing in half-log increments. If the clinical Cmax for an agent had not been determined, the highest concentration tested was 10 microM.
Cell Culture. All cells were maintained in an incubator at 37 degrees C and 5% CO2 with 95% humidity. The PDC lines were cultured according to standard operating procedures established by the NCI PDMR (https://pdmr.cancer.gov/sops/default.htm). Briefly, all PDCs were thawed and cultured in Matrigel-coated flasks prepared with a working solution of 1X Ham's F-12 nutrient mix, without supplementation (Invitrogen, Waltham, MA, cat. 11765054), 100 U/mL penicillin-streptomycin (Invitrogen, cat. 15140122), and 2.5% Matrigel (Corning Inc., Corning, NY, cat. 354248) for the first three passages. All PDCs were cultured in complete DMEM/F-12 media containing advanced DMEM/F-12 (Invitrogen, cat. 12634028), 4.9% defined fetal bovine serum, heat inactivated (HyClone Laboratories Inc., Logan, UT, cat. SH30070.03HI), 389 ng/mL hydrocortisone (Sigma-Aldrich, cat. H4001), 9.7 ng/mL human EGF recombinant protein (Invitrogen, cat. PHG0313), 23.4 microg/mL adenine (Sigma-Aldrich, cat. A2786), 97.3 U/mL penicillin-streptomycin (Invitrogen, cat. 15140122), 1.9 mM L-glutamine (Invitrogen, cat. 25030081), and 9.7 microM Y-27632 dihydrochloride (Tocris Bioscience, Bristol, United Kingdom, cat. 1254). The PDCs were cultured in complete DMEM/F12 media without 9.7 microM Y-27632 dihydrochloride for at least two passages prior to the screen. The established cell line HOP-62 was cultured in RPMI 1640 medium, HEPES (Invitrogen, cat. 22400105) with 10% defined fetal bovine serum (HyClone Laboratories Inc., cat. SH30070.03) and 2 mM L-glutamine (Invitrogen, cat. 25030081). The pooled donor HUVEC were cultured in endothelial cell growth medium 2 (PromoCell, Heidelberg, Germany, cat. C-22011) and the hMSC were cultured in mesenchymal stem cell growth medium 2 (PromoCell, cat. C-28009). For all experiments, HUVEC and hMSC were used at passages </=5, while the malignant cell lines were used at passages </=15. […]

[1] = curve of first compound, second compound 0.0316 µM
[2] = curve of first compound, second compound 0.1 µM
[3] = curve of first compound, second compound 0.316 µM
[4] = curve of first compound, second compound 1 µM
[5] = curve of first compound, second compound 3.16 µM
[6] = second compound 0.0316 µM, first compound 0.0316 µM
[7] = second compound 0.0316 µM, first compound 0.1 µM
[8] = second compound 0.1 µM, first compound 0.0316 µM
[9] = second compound 0.1 µM, first compound 0.1 µM
[10] = second compound 0.316 µM, first compound 0.0316 µM
[11] = second compound 0.316 µM, first compound 0.1 µM
[12] = second compound 1 µM, first compound 0.0316 µM
[13] = second compound 1 µM, first compound 0.1 µM
[14] = second compound 3.16 µM, first compound 0.0316 µM
[15] = second compound 3.16 µM, first compound 0.1 µM
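Further: spheroids exposed to compounds for seven days before readout.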
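Wherever viability, T/C is given: 100% = DMSO vehicle control luminescence of the spheroids.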

`CC(=O)OC12COC1CC(O)C1(C)C(=O)C(O)C3=C(C)C(OC(=O)C(O)C(NC(=O)OC(C)(C)C)c4ccccc4)CC(O)(C(OC(=O)c4ccccc4)C21)C3(C)C` (centres undefined) was tested, and the viability, T/C (compound 0.01 µM) was 98.5% [middle of 5 runs], the viability, T/C (compound 0.0316 µM) was 95.8% [middle of 5 runs] and the viability, T/C (compound 0.1 µM) was 68.8% [middle of 5 runs]. For the same compound, the viability, T/C (compound 0.316 µM) was 42.4% [middle of 5 runs], the viability, T/C (compound 1 µM) was 28.1% [middle of 5 runs] and the viability, T/C (compound 3.16 µM) was 25.8% [middle of 5 runs]. For the same compound, the IC50 (curve of compound) was 217 nM [middle of 5 runs].
Work on `CC(C)n1nc(-c2ccc3oc(N)nc3c2)c2c(N)ncnc21` + C=CC(=O)N1CCN(c2nc(OCC3CCCN3C)nc3c2CCN(c2cccc4cccc(C)c24)C3)CC1CC#N yielded an IC50 [1] of 15.3 nM, an IC50 [2] of 23.2 nM and an IC50 [3] of 15.3 nM. The IC50 [4] was 14.1 nM, the IC50 [5] was 2.27 nM and the viability, T/C (second compound 0.0316 µM, first compound 0.000316 µM) was 118%. For the same compound, the viability, T/C (second compound 0.0316 µM, first compound 0.001 µM) was 109%, the viability, T/C (second compound 0.0316 µM, first compound 0.00316 µM) was 87.6% and the viability, T/C (second compound 0.0316 µM, first compound 0.01 µM) was 63.1%. It also gave a viability, T/C [6] of 30.1%, a viability, T/C [7] of 21.1% and a viability, T/C (second compound 0.1 µM, first compound 0.000316 µM) of 113%. For the same compound, the viability, T/C (second compound 0.1 µM, first compound 0.001 µM) was 115%, the viability, T/C (second compound 0.1 µM, first compound 0.00316 µM) was 90.6% and the viability, T/C (second compound 0.1 µM, first compound 0.01 µM) was 68.1%. The viability, T/C [8] was 45.2%, the viability, T/C [9] was 22.3% and the viability, T/C (second compound 0.316 µM, first compound 0.000316 µM) was 111%. For the same compound, the viability, T/C (second compound 0.316 µM, first compound 0.001 µM) was 115%, the viability, T/C (second compound 0.316 µM, first compound 0.00316 µM) was 101% and the viability, T/C (second compound 0.316 µM, first compound 0.01 µM) was 61%. The viability, T/C [10] was 31.6%, the viability, T/C [11] was 23.6% and the viability, T/C (second compound 1 µM, first compound 0.000316 µM) was 108%. The viability, T/C (second compound 1 µM, first compound 0.001 µM) was 118%, the viability, T/C (second compound 1 µM, first compound 0.00316 µM) was 83% and the viability, T/C (second compound 1 µM, first compound 0.01 µM) was 58.8%. It also gave a viability, T/C [12] of 34.6%, a viability, T/C [13] of 23.1% and a viability, T/C (second compound 3.16 µM, first compound 0.000316 µM) of 86%. It also gave a viability, T/C (second compound 3.16 µM, first compound 0.001 µM) of 52.7%, a viability, T/C (second compound 3.16 µM, first compound 0.00316 µM) of 56.7% and a viability, T/C (second compound 3.16 µM, first compound 0.01 µM) of 23.9%. The viability, T/C [14] was 29.2% and the viability, T/C [15] was 12.6%.
`CC1OCC2(CCN(c3cnc(Sc4ccnc(N)c4Cl)c(N)n3)CC2)C1N` (centres undefined) was tested, and the viability, T/C (compound 0.0316 µM) was 91.3% and 92.3% and 111%, the viability, T/C (compound 0.1 µM) was 96.8% [middle of 19 runs] and the viability, T/C (compound 1 µM) was 82.1% [middle of 19 runs]. The IC50 (compound alone, run of 07/12/2021) was over 10000 nM, the IC50 (compound alone, run of 07/19/2021) was over 10000 nM and the IC50 (compound alone, run of 07/26/2021) was > 10000 nM and 3880 nM. For the same compound, the IC50 (curve of compound) was over 10000 nM.
`COC(=O)c1ccc2c(C(=Nc3ccc(N(C)C(=O)CN4CCN(C)CC4)cc3)c3ccccc3)c(O)[nH]c2c1` + C=CC(=O)N1CCN(c2nc(OCC3CCCN3C)nc3c2CCN(c2cccc4cccc(C)c24)C3)CC1CC#N was tested, and the IC50 [1] was over 10000 nM, the IC50 [2] was over 10000 nM and the IC50 [3] was over 10000 nM. The IC50 [4] was over 10000 nM, the IC50 [5] was 583 nM and the viability, T/C [6] was 93.5%. The viability, T/C [7] was 89.8%, the viability, T/C (second compound 0.0316 µM, first compound 0.316 µM) was 98.9% and the viability, T/C (second compound 0.0316 µM, first compound 1 µM) was 87.8%. The viability, T/C (second compound 0.0316 µM, first compound 3.16 µM) was 81.7%, the viability, T/C (second compound 0.0316 µM, first compound 10 µM) was 83.3% and the viability, T/C [8] was 95.5%. It also gave a viability, T/C [9] of 94.9%, a viability, T/C (second compound 0.1 µM, first compound 0.316 µM) of 92.3% and a viability, T/C (second compound 0.1 µM, first compound 1 µM) of 83.8%. The viability, T/C (second compound 0.1 µM, first compound 3.16 µM) was 81.8%, the viability, T/C (second compound 0.1 µM, first compound 10 µM) was 82% and the viability, T/C [10] was 81%. It also gave a viability, T/C [11] of 88.5%, a viability, T/C (second compound 0.316 µM, first compound 0.316 µM) of 86.3% and a viability, T/C (second compound 0.316 µM, first compound 1 µM) of 77.1%. It also gave a viability, T/C (second compound 0.316 µM, first compound 3.16 µM) of 68.1%, a viability, T/C (second compound 0.316 µM, first compound 10 µM) of 77.8% and a viability, T/C [12] of 85.8%. The viability, T/C [13] was 86.2%, the viability, T/C (second compound 1 µM, first compound 0.316 µM) was 86.7% and the viability, T/C (second compound 1 µM, first compound 1 µM) was 78%. For the same compound, the viability, T/C (second compound 1 µM, first compound 3.16 µM) was 75.6%, the viability, T/C (second compound 1 µM, first compound 10 µM) was 76.3% and the viability, T/C [14] was 70%. For the same compound, the viability, T/C [15] was 65.2%, the viability, T/C (second compound 3.16 µM, first compound 0.316 µM) was 57.9% and the viability, T/C (second compound 3.16 µM, first compound 1 µM) was 42.3%. It also gave a viability, T/C (second compound 3.16 µM, first compound 3.16 µM) of 7.1% and a viability, T/C (second compound 3.16 µM, first compound 10 µM) of 0.21%.
